This passage reports mass density results from the NIST ThermoML archive (doi:10.1016/j.jct.2008.07.005).

A short description of series [1]: xn = mol fraction of the nth substance listed. The following applies: 283.15 K; 98.93 kPa; Liquid; x2 = 0.

SMILES strings stand for the structures. Numbers after ± are expanded uncertainties.

With `CC(O)CO` (centres undefined) [1,2-propanediol], the mass density reads like this: (283.15 K, 101.33 kPa, Liquid) 1043.32 ± 1.5 kg/m3; (288.15 K, 101.33 kPa, Liquid) 1040.45 ± 1.5 kg/m3; (293.15 K, 101.33 kPa, Liquid) 1036.15 ± 1.4 kg/m3; (298.15 K, 101.33 kPa, Liquid) 1032.71 ± 1.5 kg/m3; (303.15 K, 101.33 kPa, Liquid) 1029.62 ± 1.5 kg/m3; (308.15 K, 101.33 kPa, Liquid) 1025.13 ± 1.6 kg/m3.
With `OCC(O)CO` [glycerol], the mass density (283.15 K, 101.33 kPa, Metastable liquid) stood at 1266.31 ± 2.2 kg/m3; the mass density (288.15 K, 101.33 kPa, Metastable liquid) came to 1264.39 ± 2.1 kg/m3; the mass density (293.15 K, 101.33 kPa, Metastable liquid) is 1262.53 ± 2.1 kg/m3; the mass density (298.15 K, 101.33 kPa, Metastable liquid) stood at 1258.73 ± 2.1 kg/m3; the mass density (303.15 K, 101.33 kPa, Metastable liquid) was 1254.9 ± 2.2 kg/m3; the mass density (308.15 K, 101.33 kPa, Metastable liquid) was 1252.65 ± 2.2 kg/m3.
For `OCCCO` [propan-1,3-diol], the mass density runs as follows: (283.15 K, 101.33 kPa, Liquid) 1056.92 ± 1.7 kg/m3; (288.15 K, 101.33 kPa, Liquid) 1055.67 ± 1.6 kg/m3; (293.15 K, 101.33 kPa, Liquid) 1053.64 ± 1.6 kg/m3; (298.15 K, 101.33 kPa, Liquid) 1050.37 ± 1.7 kg/m3; (303.15 K, 101.33 kPa, Liquid) 1047.58 ± 1.7 kg/m3; (308.15 K, 101.33 kPa, Liquid) 1044.25 ± 1.8 kg/m3.
In the case of `CCCO` [propan-1-ol], the mass density is 811.34 ± 1.2 kg/m3 (283.15 K, 101.33 kPa, Liquid); 807.51 ± 1.1 kg/m3 (288.15 K, 101.33 kPa, Liquid); 803.65 ± 1.1 kg/m3 (293.15 K, 101.33 kPa, Liquid); 799.67 ± 1.1 kg/m3 (298.15 K, 101.33 kPa, Liquid); 795.95 ± 1.2 kg/m3 (303.15 K, 101.33 kPa, Liquid); 791.57 ± 1.2 kg/m3 (308.15 K, 101.33 kPa, Liquid).
`O` [water]: the mass density (283.15 K, 98.93 kPa, Liquid) stood at 999.7 ± 1.3 kg/m3.
`O` [water] + CC(O)CO: in series [1], the mass density turned out to be 999.7 ± 1.3 kg/m3.
With `O` [water] + CCCO, the mass density in series [1] stood at 999.69 ± 1.3 kg/m3.
Still for that read-out and setting: to `O` [water] + OCC(O)CO belongs 999.7 ± 1.3 kg/m3.
Still for that read-out and setting: to `O` [water] + OCCCO belongs 999.7 ± 1.3 kg/m3.
